# Results taken from patent US20200216439A1, “HETERO-1,5,6,7-TETRAHYDRO-4H-INDOL-4-ONES” (BAYER PHARMA AKTIENGESELLSCHAFT, priority 2015, published 2020).
# pIC50: −log10 of the molar value.
# Molecular target: T1, catalytic domain of human Bub1 (amino acids 704-1085) (Homo sapiens, UniProt O43683)
# T1 construct: catalytic domain of human Bub1 (amino acids 704-1085); His6 (N); made in house; host or cells: Hi5 insect cells
# Assay: Bub1 kinase assay (TR-FRET)
# Type: biochemical
# Details: TR-FRET; ATP 10 μM, peptide substrate 1 μM; 60 min at 22° C.; average or median if tested more than once; read-out: Inhibition of Bub1 kinase IC50
# Excerpt: Bub1-inhibitory activities of compounds described in the present invention were quantified using a time-resolved fluorescence energy transfer (TR-FRET) kinase assay which measures phosphorylation of the synthetic peptide Biotin-Ahx-VLLPKKSFAEPG (C-terminus in amide form), purchased from e.g. Biosyntan (Berlin, Germany) by the (recombinant) catalytic domain of human Bub1 (amino acids 704-1085), expressed in Hi5 insect cells with an N-terminal His6-tag and purified by affinity—(Ni-NTA) and size exclusion chromatography.
# In a typical assay 11 different concentrations of each compound (0.1 nM, 0.33 nM, 1.1 nM, 3.8 nM, 13 nM, 44 nM, 0.15 μM, 0.51 μM, 1.7 μM, 5.9 μM and 20 μM) were tested in duplicate within the same microtiter plate. To this end, 100-fold concentrated compound solutions (in DMSO) were previously prepared by serial dilution (1:3.4) of 2 mM stocks in a clear low volume 384-well source microtiter plate (Greiner Bio-One, Frickenhausen, Germany), from which 50 nl of compounds were transferred into a black low volume test microtiter plate from the same supplier. Subsequently, 2 μL of Bub1 (the final concentration of Bub1 was adjusted depending on the activity of the enzyme lot in order to be within the linear dynamic range of the assay: typically ˜200 ng/mL were used) in aqueous assay buffer [50 mM Tris/HCl pH 7.5, 10 mM magnesium chloride (MgCl2), 200 mM potassium chloride (KCl), 1.0 mM dithiothreitol (DTT), 0.1 mM sodium ortho-vanadate, 1% (v/v) glycerol, 0.01% (w/v) bovine serum albumine (BSA), 0.005% (v/v) Trition X-100 (Sigma), 1× Complete EDTA-free protease inhibitor mixture (Roche)] were added to the compounds in the test plate and the mixture was incubated for 15 min at 22° C. to allow pre-equilibration of the putative enzyme-inhibitor complexes before the start of the kinase reaction, which was initiated by the addition of 3 μL 1.67-fold concentrated solution (in assay buffer) of adenosine-tri-phosphate (ATP, 10 μM final concentration) and peptide substrate (1 μM final concentration). The resulting mixture (5 μL final volume) was incubated at 22° C. during 60 min., and the reaction was stopped by the addition of 5 μL of an aqueous EDTA-solution (50 mM EDTA, in 100 mM HEPES pH 7.5 and 0.2% (w/v) bovine serum albumin) which also contained the TR-FRET detection reagents (0.2 μM streptavidin-XL665 [Cisbio Bioassays, Codolet, France] and 1 nM anti-phospho-Serine antibody [Merck Millipore, cat. #35-002] and 0.4 nM LANCE EU-W1024 labeled anti-mouse IgG antibody [Perkin-Elmer, product no. AD0077, alternatively a Terbium-cryptate-labeled anti-mouse IgG antibody from Cisbio Bioassays can be used]). The stopped reaction mixture was further incubated 1 h at 22° C. in order to allow the formation of complexes between peptides and detection reagents. Subsequently, the amount of product was evaluated by measurement of the resonance energy transfer from the Eu-chelate-antibody complex recognizing the Phosphoserine residue to the streptavidin-XL665 bound to the biotin moiety of the peptide. To this end, the fluorescence emissions at 620 nm and 665 nm after excitation at 330-350 nm were measured in a TR-FRET plate reader, e.g. a Rubystar or Pherastar (both from BMG Labtechnologies, Offenburg, Germany) or a Viewlux (Perkin-Elmer) and the ratio of the emissions (665 nm/[…]) was taken as indicator for the amount of phosphorylated substrate. The data were normalised using two sets of control wells for high—(=enzyme reaction without inhibitor=0%=Minimum inhibition) and low—(=all assay components without enzyme=100%=Maximum inhibition) Bub1 activity. IC50 values were calculated by fitting the normalized inhibition data to a 4-parameter logistic equation (Minimum, Maximum, IC50, Hill; Y=Max+(Min−Max)/(1+(X/IC50)Hill)).
# T1 sequence (O43683 704-1085): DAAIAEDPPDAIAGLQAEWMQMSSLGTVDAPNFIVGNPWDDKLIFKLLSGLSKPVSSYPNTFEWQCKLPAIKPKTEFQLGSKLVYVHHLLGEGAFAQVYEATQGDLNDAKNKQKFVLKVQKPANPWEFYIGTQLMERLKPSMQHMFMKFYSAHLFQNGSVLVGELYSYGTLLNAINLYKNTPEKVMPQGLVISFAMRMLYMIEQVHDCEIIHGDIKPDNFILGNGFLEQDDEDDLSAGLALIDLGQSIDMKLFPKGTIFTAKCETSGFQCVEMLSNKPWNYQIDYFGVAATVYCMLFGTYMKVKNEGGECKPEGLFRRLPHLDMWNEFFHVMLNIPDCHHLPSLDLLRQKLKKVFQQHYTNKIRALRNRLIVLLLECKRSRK
row,Structure (SMILES),pIC50
1,CNC(=O)N1CC(=O)c2c([nH]c(-c3ccncc3OCCOC)c2Nc2ccccc2)C1 [Example 249],8.30
2,"O=C1CN(C(=O)N2CCOCC2)Cc2[nH]c(-c3ccncc3OCC(F)F)c(Nc3ccccc3)c21 [Example 239, 2-[3-(2,2-Difluoroethoxy)pyridin-4-yl]-6-(morpholin-4-ylcarbonyl)-3-(phenylamino)-1,5,6,7-tetrahydro-4H-pyrrolo[2,3-c]pyridin-4-one]",7.70
3,COCCOc1cnccc1-c1[nH]c2c(c1Nc1ccccc1)C(=O)CN(S(C)(=O)=O)C2 [Example 234],8.30
4,"Cc1ccc(F)cc1C(=O)Nc1cc(-c2[nH]c3c(c2Nc2ccccc2)C(=O)CNC3)ccn1 [Example 269, 5-Fluoro-2-methyl-N-4-[4-oxo-3-(phenylamino)-4,5,6,7-tetrahydro-1H-pyrrolo[2,3-c]pyridin-2-yl]pyridin-2-ylbenzamide]",6.83
5,"CC(=O)Nc1cc(-c2[nH]c3c(c2Nc2ccccc2)C(=O)CN(C(=O)N2C[C@@H](C)O[C@@H](C)C2)C3)ccn1 [Example 255, N-4-[6-[(2R,6S)-2,6-Dimethylmorpholin-4-yl]carbonyl-4-oxo-3-(phenylamino)-4,5,6,7-tetrahydro-1H-pyrrolo[2,3-c]pyridin-2-yl]pyridin-2-ylacetamide]",6.43
6,"Nc1cc(-c2[nH]c3c(c2Nc2ccccc2)C(=O)CNC3)ccn1 [Example 21, 2-(2-Aminopyridin-4-yl)-3-(phenylamino)-1,5,6,7-tetrahydro-4H-pyrrolo[2,3-c]pyridin-4-one]",6.10
7,"CC(=O)N1CC(=O)c2c([nH]c(-c3ccnc(NC(=O)c4ccc(F)cc4C)c3)c2Nc2ccccc2)C1 [Example 265, N-4-[6-Acetyl-4-oxo-3-(phenylamino)-4,5,6,7-tetrahydro-1H-pyrrolo[2,3-c]pyridin-2-yl]pyridin-2-yl-4-fluoro-2-methylbenzamide]",8.22
8,"CS(=O)(=O)N1CC(=O)c2c([nH]c(-c3ccncc3OCC3CC3)c2Nc2ccccc2)C1 [Example 235, 2-[3-(Cyclopropylmethoxy)pyridin-4-yl]-6-(methylsulfonyl)-3-(phenylamino)-1,5,6,7-tetrahydro-4H-pyrrolo[2,3-c]pyridin-4-one]",8.22
9,"O=C1COCc2[nH]c(-c3ccncc3F)c(Nc3ccccc3)c21 [Example 33, 2-(3-Fluoropyridin-4-yl)-3-(phenylamino)-1,7-dihydropyrano[3,4-b]pyrrol-4(5H)-one]",7.77
10,"O=C1CN(C(=O)Nc2cccnc2)Cc2[nH]c(-c3ccncc3)c(Nc3ccccc3)c21 [Example 97, 4-Oxo-3-(phenylamino)-N-(pyridin-3-yl)-2-(pyridin-4-yl)-1,4,5,7-tetrahydro-6H-pyrrolo[2,3-c]pyridine-6-carboxamide]",7.23
11,"CC(=O)Nc1cc(-c2[nH]c3c(c2Nc2ccccc2)C(=O)CN(C(=O)c2cn(C)cn2)C3)ccn1 [Example 118, N-(4-{6-[(1-Methyl-1H-imidazol-4-yl)carbonyl]-4-oxo-3-(phenylamino)-4,5,6,7-tetrahydro-1H-pyrrolo[2,3-c]pyridin-2-yl}pyridin-2-yl)acetamide]",6.83
12,"CC(C)(C)SC(=O)N1CC(=O)c2c([nH]c(-c3ccnc(NC(=O)[C@@H]4C[C@@H]4F)c3)c2Nc2ccccc2)C1 [Example 308, S-tert-Butyl 3-anilino-2-[2-({[(1S,2S)-2-fluorocyclopropyl]carbonyl}amino)pyridin-4-yl]-4-oxo-1,4,5,7-tetrahydro-6H-pyrrolo[2,3-c]pyridine-6-carbothioate]",7.51
13,CNS(=O)(=O)N1CC(=O)c2c([nH]c(-c3ccnc(NC(C)=O)c3)c2Nc2ccc(C)cc2)C1 [Example 322],7.39
14,"O=C1CN(C(=O)NC2CCOCC2)Cc2[nH]c(-c3ccncc3)c(Nc3ccccc3)c21 [Example 96, 4-Oxo-3-(phenylamino)-2-(pyridin-4-yl)-N-(tetrahydro-2H-pyran-4-yl)-1,4,5,7-tetrahydro-6H-pyrrolo[2,3-c]pyridine-6-carboxamide]",7.26
15,"CN(C)C(=O)N1CC(=O)c2c([nH]c(-c3ccncc3OCC(F)F)c2Nc2ccccc2)C1 [Example 238, 2-[3-(2,2-Difluoroethoxy)pyridin-4-yl]-N,N-dimethyl-4-oxo-3-(phenylamino)-1,4,5,7-tetrahydro-6H-pyrrolo[2,3-c]pyridine-6-carboxamide]",8.10
16,"Cc1nccc(-c2[nH]c3c(c2Nc2ccccc2)C(=O)CN(C(=O)OC(C)(C)C)C3)n1 [Example 12, tert-Butyl 2-(2-methylpyrimidin-4-yl)-4-oxo-3-(phenylamino)-1,4,5,7-tetrahydro-6H-pyrrolo[2,3-c]pyridine-6-carboxylate]",6.99
17,"CC(=O)Nc1cc(-c2[nH]c3c(c2Nc2ccccc2)C(=O)CN(S(=O)(=O)CCO)C3)ccn1 [Example 188, N-(4-{3-Anilino-6-[(2-hydroxyethyl)sulfonyl]-4-oxo-4,5,6,7-tetrahydro-1H-pyrrolo[2,3-c]pyridin-2-yl}pyridin-2-yl)acetamide]",8.40
18,"CC(C)(C)OC(=O)N1CC(=O)c2c([nH]c(-c3ccnc(NC(=O)[C@@H]4C[C@H]4F)c3)c2Nc2ccccc2)C1 (relative stereo) [Example 129, tert-Butyl 3-anilino-2-[2-({[(rel-1S,2R)-2-fluorocyclopropyl]carbonyl}amino)pyridin-4-yl]-4-oxo-1,4,5,7-tetrahydro-6H-pyrrolo[2,3-c]pyridine-6-carboxylate]",8.15
19,"CC(C)(C)OC(=O)N1CC(=O)c2c([nH]c(-c3ccncc3)c2Nc2ccccc2)C1 [Example 3, tert-Butyl 4-oxo-3-(phenylamino)-2-(pyridin-4-yl)-1,4,5,7-tetrahydro-6H-pyrrolo[2,3-c]pyridine-6-carboxylate]",8.00
20,"CC(=O)Nc1cc(-c2[nH]c3c(c2Nc2ccccc2)C(=O)CN(C(=O)c2ccccn2)C3)ccn1 [Example 114, N-{4-[4-Oxo-3-(phenylamino)-6-(pyridin-2-ylcarbonyl)-4,5,6,7-tetrahydro-1H-pyrrolo[2,3-c]pyridin-2-yl]pyridin-2-yl}acetamide]",7.20
21,"CC(C)(C)OC(=O)N1CC(=O)c2c([nH]c(-c3ccnc(N)c3)c2Nc2ccc(F)cc2)C1 [Example 296, tert-Butyl 2-(2-aminopyridin-4-yl)-3-[(4-fluorophenyl)amino]-4-oxo-1,4,5,7-tetrahydro-6H-pyrrolo[2,3-c]pyridine-6-carboxylate]",6.76
22,"CC(=O)Nc1cc(-c2[nH]c3c(c2Nc2ccccc2)C(=O)CN(S(=O)(=O)CCC(F)(F)F)C3)ccn1 [Example 182, N-(4-{3-Anilino-4-oxo-6-[(3,3,3-trifluoropropyl)sulfonyl]-4,5,6,7-tetrahydro-1H-pyrrolo[2,3-c]pyridin-2-yl}pyridin-2-yl)acetamide]",8.40
23,"O=C1CSCc2[nH]c(-c3ccncc3Cl)c(Nc3ccccc3)c21 [Example 38, 2-(3-Chloropyridin-4-yl)-3-(phenylamino)-1,7-dihydrothiopyrano[3,4-b]pyrrol-4(5H)-one]",7.40
24,"COCCOc1cnccc1-c1[nH]c2c(c1Nc1ccccc1)C(=O)CNC2 [Example 226, 3-anilino-2-[3-(2-methoxyethoxy)pyridin-4-yl]-1,5,6,7-tetrahydro-4H-pyrrolo[2,3-c]pyridin-4-one]",7.14
25,"COc1cnccc1-c1[nH]c2c(c1Nc1ccccc1)C(=O)CN(S(=O)(=O)C(C)C)C2 [Example 109, 2-(3-Methoxypyridin-4-yl)-3-(phenylamino)-6-(propan-2-ylsulfonyl)-1,5,6,7-tetrahydro-4H-pyrrolo[2,3-c]pyridin-4-one]",8.15
